Tested on: moderate-to-severe chronic spontaneous urticaria (CSU)
Test: Phase 2 CSU study: urticaria activity score over 7 days (UAS7)
Format: in vivo, human
Set-up: key to UAS7 Median / UAS7 Change from baseline Median / UAS7 change from baseline, Q1 / UAS7 change from baseline, Q3 / UAS7 change from baseline, Max / UAS7 Change from baseline LS Mean (SE): UAS7 points; daily UAS score ranges 0–6 points/day, over 7 days
Conditions: for RRD (%) for rilzabrutinib vs. placebo, UAS7 = 0 / RRD (%) for rilzabrutinib vs. placebo, UAS7 ≤6 / Responder n (%), UAS7 = 0 / Responder n (%), UAS7 ≤6 / Imputed non-responder n (%), UAS7 = 0 / Imputed non-responder n (%), UAS7 ≤6 / Non-responder n (%), UAS7 = 0 / Non-responder n (%), UAS7 ≤6 / OR for rilzabrutinib vs. placebo, UAS7 = 0 / OR for rilzabrutinib vs. placebo, UAS7 ≤6: Omalizumab-naïve, 400 mg TID; for Non-responder, UAS7 reduction from baseline of 10 points or more / OR for rilzabrutinib vs. placebo, UAS7 reduction of 10 points or more / RRD (%) for rilzabrutinib vs. placebo, UAS7 reduction of 10 points or more / Responder, UAS7 reduction from baseline of 10 points or more / UAS7 Change from baseline Mean (SD) / UAS7 Change from baseline Median / UAS7 Mean (SD) / UAS7 Median / UAS7 Percent change from baseline Mean (SD) / UAS7 Percent change from baseline Median: Week 1
Description: The study comprises a 12 week, randomized, double-blind, placebo-controlled, multi-center, dose-ranging efficacy and safety phase, followed by a 40 week open label extension (OLE) phase (see FIG. 1). The study consists of three phases and an optional OLE phase. […] Clinically, CSU is characterized by the spontaneous and recurrent appearance of pruritic hives. The proposed primary endpoints were the UAS7 at Week 12 in EU and EU reference countries and the ISS7 in the US. Regardless of where a participant was from, all assessments were the same. The UAS7 score is a composite score containing both the HSS7 and the ISS7. This allowed a global assessment of the two key components of urticaria: hives and itch. […] The UAS is a validated PRO measure. […] The daily UAS scores range from 0 to 6 point/day. […] Patients were to complete the UAS using the e-diary. […] The following secondary endpoints were to be analyzed using the same approach as for the primary endpoint: • Change from baseline in UAS7 at Week 4 • Change from baseline in UAS7 at Week 12 (for US and US reference countries) • Change from baseline in ISS7 at Week 12 (except US and US reference countries) • Change from baseline in HSS7 at Week 12 The following responder secondary endpoints were to be analyzed using the Cochran-Mantel-Haenszel test adjusted by region: • Proportion of participants with UAS7<6 at Week 12 • Proportion of participants with UAS7=0 at Week 12 Participants who received selected prohibited medications and/or rescue medications were to be considered as non-responders for time points after the medication usage. For other participants, all available data including those collected during the off-treatment period were to be used to determine the responder/non-responder status. Missing data were to be considered as non-responders.

[1] = 400 mg BID, Prior Omalizumab Use
[2] = 400 mg BID, omalizumab-naive participants
[3] = 400 mg QPM, Prior Omalizumab Use

With `CC(C)(C=C(C#N)C(=O)N1CCC[C@@H](n2nc(-c3ccc(Oc4ccccc4)cc3F)c3c(N)ncnc32)C1)N1CCN(C2COC2)CC1` [rilzabrutinib, (R)-2-[3-[4-amino-3-(2-fluoro-4-phenoxy-phenyl)pyrazolo[3,4-d]pyrimidin-1-yl]piperidine-1-carbonyl]-4-methyl-4-[4-(oxetan-3-yl)piperazin-1-yl]pent-2-enenitrile] as the compound, how does the “RRD (%) for rilzabrutinib vs. placebo, UAS7 = 0” value (from here on “RRD (%) … UAS7 = 0”) (Week 9) read?
The value was −0.9 %.

What about the “RRD (%) for rilzabrutinib vs. placebo, UAS7 ≤6” value (shortened to “RRD (%) … UAS7 ≤6”) (Week 9) of the same compound?
Its value is 16.7 %.

What about the “Responder n (%), UAS7 = 0” value (Week 9) of the same compound?
The value was 3 (8.6) n (%).

And the “Responder n (%), UAS7 ≤6” value (Week 9)?
Its value is 11 (31.4) n (%).

What about the “Imputed non-responder n (%), UAS7 = 0” value (Week 10) of the same compound?
Its value is 5 (14.3) n (%).

And the “Imputed non-responder n (%), UAS7 ≤6” value (Week 10)?
The value was 5 (14.3) n (%).

What about the “Non-responder n (%), UAS7 = 0” value (Week 10) of the same compound?
Its value is 31 (88.6) n (%).

What about the “Non-responder n (%), UAS7 ≤6” value (Week 10) of the same compound?
Its value is 25 (71.4) n (%).

And the “OR for rilzabrutinib vs. placebo, UAS7 = 0” value (Week 10)?
The value was 0.819.

What about the “OR for rilzabrutinib vs. placebo, UAS7 ≤6” value (Week 10) of the same compound?
The value was 2.241.

What about the “RRD (%) … UAS7 = 0” value (Week 10) of the same compound?
Its value is −1.7 %.

And the “RRD (%) … UAS7 ≤6” value (Week 10)?
The value was 12.1 %.

And the “Responder n (%), UAS7 = 0” value (Week 10)?
The value was 4 (11.4) n (%).

And the “Responder n (%), UAS7 ≤6” value (Week 10)?
The value was 10 (28.6) n (%).

What about the “Imputed non-responder n (%), UAS7 = 0” value (Week 11) of the same compound?
The value was 4 (11.4) n (%).

And the “Imputed non-responder n (%), UAS7 ≤6” value (Week 11)?
The value was 4 (11.4) n (%).

And the “Non-responder n (%), UAS7 = 0” value (Week 11)?
The value was 31 (88.6) n (%).

And the “Non-responder n (%), UAS7 ≤6” value (Week 11)?
The value was 24 (68.6) n (%).

And the “OR for rilzabrutinib vs. placebo, UAS7 = 0” value (Week 11)?
Its value is 1.846.

What about the “OR for rilzabrutinib vs. placebo, UAS7 ≤6” value (Week 11) of the same compound?
Its value is 1.971.

What about the “RRD (%) … UAS7 = 0” value (Week 11) of the same compound?
Its value is 4.3 %.

And the “RRD (%) … UAS7 ≤6” value (Week 11)?
The value was 11.2 %.

And the “Responder n (%), UAS7 = 0” value (Week 11)?
Its value is 4 (11.4) n (%).

What about the “Responder n (%), UAS7 ≤6” value (Week 11) of the same compound?
The value was 11 (31.4) n (%).

And the “Imputed non-responder n (%), UAS7 = 0” value (Week 12)?
The value was 8 (22.9) n (%).

And the “Imputed non-responder n (%), UAS7 ≤6” value (Week 12)?
Its value is 8 (22.9) n (%).

What about the “Non-responder n (%), UAS7 = 0” value (Week 12) of the same compound?
Its value is 28 (80.0) n (%).

What about the “Non-responder n (%), UAS7 ≤6” value (Week 12) of the same compound?
The value was 23 (65.7) n (%).

What about the “OR for rilzabrutinib vs. placebo, UAS7 = 0” value (Week 12) of the same compound?
The value was 1.800.

And the “OR for rilzabrutinib vs. placebo, UAS7 ≤6” value (Week 12)?
The value was 3.980.

What about the “RRD (%) … UAS7 = 0” value (Week 12) of the same compound?
The value was 6.9 %.

What about the “RRD (%) … UAS7 ≤6” value (Week 12) of the same compound?
Its value is 20.3 %.

And the “Responder n (%), UAS7 = 0” value (Week 12)?
Its value is 7 (20.0) n (%).

And the “Responder n (%), UAS7 ≤6” value (Week 12)?
Its value is 12 (34.3) n (%).

And the “Non-responder, UAS7 reduction from baseline of 10 points or more” value (shortened to “Non-responder, UAS7 reduction”) (400 mg BID, ITT population)?
The value was 23 (56.1) n (%).

And the “OR for rilzabrutinib vs. placebo, UAS7 reduction of 10 points or more” value (400 mg BID, ITT population)?
The value was 2.607.

And the “RRD (%) for rilzabrutinib vs. placebo, UAS7 reduction of 10 points or more” value (400 mg BID, ITT population)?
Its value is 20.0 %.

What about the “Responder, UAS7 reduction from baseline of 10 points or more” value (400 mg BID, ITT population) of the same compound?
Its value is 18 (43.9) n (%).

And the “UAS7 Change from baseline Mean (SD)” value (400 mg BID, Omalizumab-Naïve)?
The value was −9.96 (8.81).

And the “UAS7 Change from baseline Median” value (400 mg BID, Omalizumab-Naïve)?
Its value is −9.00.

What about the “UAS7 Mean (SD)” value (400 mg BID, Omalizumab-Naïve) of the same compound?
Its value is 19.77 (11.32).

And the “UAS7 Median” value (400 mg BID, Omalizumab-Naïve)?
Its value is 21.00.

And the “UAS7 Percent change from baseline Mean (SD)” value (“UAS7 Percent change … (SD)” for short) (400 mg BID, Omalizumab-Naïve)?
The value was −35.41 (33.69) %.

And the “UAS7 Percent change from baseline Median” value (400 mg BID, Omalizumab-Naïve)?
The value was −26.19%.

And the “UAS7 Change from baseline Mean (SD)” value [1]?
The value was −11.83 (12.14).

And the “UAS7 Change from baseline Median” value [1]?
The value was −7.50.

And the “UAS7 Median” value [1]?
The value was 23.50.

What about the “UAS7 Percent change … (SD)” value [1] of the same compound?
Its value is −35.59 (37.55) %.

What about the “UAS7 Percent change from baseline Median” value [1] of the same compound?
Its value is −20.53%.

And the “Non-responder, UAS7 reduction” value [2]?
Its value is 19 (54.3) n (%).

And the “OR for rilzabrutinib vs. placebo, UAS7 reduction of 10 points or more” value [2]?
The value was 2.862.

And the “RRD (%) for rilzabrutinib vs. placebo, UAS7 reduction of 10 points or more” value [2]?
Its value is 22.3 %.

And the “Responder, UAS7 reduction from baseline of 10 points or more” value [2]?
Its value is 16 (45.7) n (%).

And the “Non-responder, UAS7 reduction” value (400 mg QPM, ITT population)?
The value was 26 (68.4) n (%).

What about the “OR for rilzabrutinib vs. placebo, UAS7 reduction of 10 points or more” value (400 mg QPM, ITT population) of the same compound?
The value was 1.672.

What about the “Responder, UAS7 reduction from baseline of 10 points or more” value (400 mg QPM, ITT population) of the same compound?
Its value is 12 (31.6) n (%).

And the “UAS7 Change from baseline Mean (SD)” value (400 mg QPM, Omalizumab-Naïve)?
The value was −7.30 (9.14).

And the “UAS7 Change from baseline Median” value (400 mg QPM, Omalizumab-Naïve)?
The value was −6.00.

What about the “UAS7 Mean (SD)” value (400 mg QPM, Omalizumab-Naïve) of the same compound?
Its value is 23.81 (8.78).

And the “UAS7 Median” value (400 mg QPM, Omalizumab-Naïve)?
The value was 25.00.

And the “UAS7 Percent change … (SD)” value (400 mg QPM, Omalizumab-Naïve)?
Its value is −21.72 (26.65) %.

And the “UAS7 Percent change from baseline Median” value (400 mg QPM, Omalizumab-Naïve)?
Its value is −17.95%.

And the “UAS7 Change from baseline Mean (SD)” value [3]?
The value was −16.00 (NC).

And the “UAS7 Change from baseline Median” value [3]?
Its value is −16.00.

And the “UAS7 Mean (SD)” value [3]?
The value was 25.00 (NC).

And the “UAS7 Median” value [3]?
Its value is 25.00.
